Consider 14 compounds from PubChem BioAssay (NCI).

Test systems include SK-MEL-28 melanoma; SF-539 CNS; COLO 205 colon; SK-MEL-5 melanoma; A549 NSCLC; NCI-H23 lung; SN12C renal; 786-0 renal; KM12 colon; U251 CNS.
What all share (experiment): NCI tumour cell line growth inhibition, 48 h

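Grown in 96-well plates, cells were treated for 48 hours with each compound at five concentrations. Insufficient inhibition: endpoint recorded as highest concentration tested. Here, GI50 denotes the concentration required for 50% inhibition of growth. The concentration for full growth arrest is given as TGI.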

Turning to `NC(=O)c1cc(Br)cc(C2CCCCC2)c1O`, the GI50 is 14 µM with SK-MEL-28 melanoma; 15.2 µM in the test with SF-539 CNS; 16.5 µM with COLO 205 colon; 15.1 µM in the test on SK-MEL-5 melanoma; 13.4 µM in the test with A549 NSCLC; 15.3 µM in the test with NCI-H23 lung. In addition, the GI50 in the test on SN12C renal was 12.2 µM; in the test with 786-0 renal, 11.8 µM; in the test with KM12 colon it was 11.7 µM; in the test with U251 CNS it was 10.8 µM. The TGI with SK-MEL-28 melanoma turned out to be 27.3 µM; in the test with SF-539 CNS, 30.2 µM; in the test on COLO 205 colon it was 31.1 µM; in the test with SK-MEL-5 melanoma, 28.9 µM; in the test on A549 NSCLC it was 27.1 µM; with NCI-H23 lung it was 30.8 µM. The TGI with SN12C renal was 25.1 µM; with 786-0 renal, 24.4 µM; in the test on KM12 colon, 24.5 µM; in the test with U251 CNS, 23 µM.

For the compound `CN1NC2(CCCCC2)ON=C1c1ccccc1`, the TGI in the test with SK-MEL-28 melanoma, in the test on SF-539 CNS, in the test on COLO 205 colon, with SK-MEL-5 melanoma, in the test on A549 NSCLC and in the test with NCI-H23 lung was above 100 µM in each case. Moreover, the TGI in the test on SN12C renal, with 786-0 renal, with KM12 colon and with U251 CNS was above 100 µM in each case.

In the case of `O=c1cc2ccccc2nn1Cc1ccccc1Cl`, the TGI in the test with SK-MEL-28 melanoma, with SF-539 CNS, in the test on COLO 205 colon, in the test with SK-MEL-5 melanoma, in the test with A549 NSCLC and in the test with NCI-H23 lung was above 100 µM in each case. Further, the TGI in the test on SN12C renal, with 786-0 renal, in the test on KM12 colon and in the test with U251 CNS was above 100 µM throughout.

On to `COc1cc2c3c(n(CCCNCCN)c(=O)c2cc1OC)-c1cc2c(cc1C3=O)OCO2`, for which the GI50 with SK-MEL-28 melanoma is 0.822 µM; in the test on SF-539 CNS, 0.39 µM; in the test with COLO 205 colon, above 100 µM; in the test on SK-MEL-5 melanoma, 0.978 µM; with A549 NSCLC it was 1.61 µM; in the test with NCI-H23 lung, 0.242 µM. Also, the GI50 in the test with SN12C renal was 0.351 µM; in the test on 786-0 renal it was 0.312 µM; in the test with KM12 colon, 1.48 µM; in the test with U251 CNS, 0.0484 µM. In addition, the TGI in the test on SK-MEL-28 melanoma was 2.95 µM; with SF-539 CNS, 2.22 µM; in the test on COLO 205 colon it was above 100 µM; with SK-MEL-5 melanoma, 6.77 µM; in the test with A549 NSCLC, 13.7 µM; in the test on NCI-H23 lung, 1.14 µM. Further, the TGI in the test with SN12C renal worked out at 4.35 µM; in the test on 786-0 renal, 2.5 µM; in the test on KM12 colon, 7.19 µM; in the test on U251 CNS, 0.533 µM.

`Cc1sc(C)c(Cc2c(C)sc(C)c2CCl)c1CCl`: the GI50 with SK-MEL-28 melanoma, in the test with SF-539 CNS, with COLO 205 colon, with SK-MEL-5 melanoma, with A549 NSCLC and with NCI-H23 lung was above 100 µM throughout. In addition, the GI50 with SN12C renal, with 786-0 renal, with KM12 colon and in the test with U251 CNS was above 100 µM in each case. Also, the TGI in the test with SK-MEL-28 melanoma, in the test on SF-539 CNS, in the test with COLO 205 colon, with SK-MEL-5 melanoma, in the test with A549 NSCLC and in the test on NCI-H23 lung was above 100 µM in each case. Besides, the TGI with SN12C renal, in the test on 786-0 renal, in the test with KM12 colon and with U251 CNS was above 100 µM in each case.

In the case of `CC(=O)O[C@H]1CC[C@@]2(C)C(=CC[C@H]3[C@@H]4C/C(=C\c5cccc(OCCN6CCOCC6)c5)[C@H](OC(C)=O)[C@@]4(C)CC[C@@H]32)C1`, the GI50 in the test on SK-MEL-28 melanoma is 5.48 µM; in the test with SF-539 CNS, 3.64 µM; in the test on COLO 205 colon it was 6.46 µM; in the test with SK-MEL-5 melanoma, 10.5 µM; with A549 NSCLC, 5.05 µM; in the test with NCI-H23 lung it was 6.97 µM. Besides, the GI50 in the test with SN12C renal was 25 µM; in the test on 786-0 renal, 2.63 µM; with KM12 colon it was 3.84 µM; in the test on U251 CNS, 4.58 µM. For the same compound, the TGI with SK-MEL-28 melanoma came to 17.6 µM; in the test with SF-539 CNS, 13.9 µM; in the test with COLO 205 colon, 19.4 µM; with SK-MEL-5 melanoma it was 22.3 µM; in the test on A549 NSCLC, 20.5 µM; in the test on NCI-H23 lung it was 23.8 µM. Also, the TGI in the test with SN12C renal is above 100 µM; in the test on 786-0 renal it was 7.96 µM; with KM12 colon it was 14.2 µM; in the test on U251 CNS it was 16.6 µM.

For the compound `OCCSCc1ccccc1`, the TGI in the test on SK-MEL-28 melanoma, in the test with SF-539 CNS, with COLO 205 colon, with SK-MEL-5 melanoma, in the test on A549 NSCLC and in the test on NCI-H23 lung was above 100 µM in each case. For the same compound, the TGI with SN12C renal, with 786-0 renal, in the test on KM12 colon and in the test on U251 CNS was above 100 µM each time.

For the compound `CN(C)N1C(=O)c2ccccc2NC1c1ccccc1` (centres undefined), the TGI in the test with SK-MEL-28 melanoma, in the test with SF-539 CNS, with COLO 205 colon, in the test on SK-MEL-5 melanoma, in the test with A549 NSCLC and with NCI-H23 lung was above 100 µM each time. Moreover, the TGI in the test with SN12C renal, with 786-0 renal, in the test with KM12 colon and in the test with U251 CNS was above 100 µM each time.

Turning to `O=S(=O)(NCC1CCC(CNc2ccc(Cl)cc2)CC1)c1ccc(-c2ccccc2)cc1` (centres undefined), the GI50 in the test with SK-MEL-28 melanoma is above 50 µM; in the test on SF-539 CNS it was above 50 µM; in the test with COLO 205 colon, above 50 µM; in the test on SK-MEL-5 melanoma, 15.9 µM; in the test on A549 NSCLC it was 9.21 µM; in the test with NCI-H23 lung, 20.6 µM. Further, the GI50 in the test on SN12C renal was above 50 µM; with 786-0 renal, above 50 µM; with KM12 colon it was above 50 µM; in the test on U251 CNS, 23.5 µM. The TGI with SK-MEL-28 melanoma, with SF-539 CNS, with COLO 205 colon, in the test on SK-MEL-5 melanoma, with A549 NSCLC and in the test on NCI-H23 lung was above 50 µM throughout. Moreover, the TGI in the test on SN12C renal, with 786-0 renal, in the test with KM12 colon and in the test on U251 CNS was above 50 µM throughout.

Consider `CC(C)c1ccc(C(=O)Nc2sc3c(c2C#N)CCC(=O)C3)cc1`, for which the GI50 with SK-MEL-28 melanoma is 0.754 µM; with SF-539 CNS, 0.337 µM; with COLO 205 colon, 0.49 µM; in the test with SK-MEL-5 melanoma, 0.979 µM; in the test with A549 NSCLC, 1.63 µM; in the test with NCI-H23 lung it was 0.32 µM. In addition, the GI50 with SN12C renal is 0.378 µM; in the test with 786-0 renal it was 0.67 µM; with KM12 colon, 0.413 µM; with U251 CNS it was 0.338 µM. In addition, the TGI is 9.84 µM in the test on SK-MEL-28 melanoma; 1.41 µM with SF-539 CNS; 2.87 µM in the test with COLO 205 colon; 2.52 µM in the test on SK-MEL-5 melanoma; above 100 µM in the test on A549 NSCLC; 9.57 µM in the test with NCI-H23 lung. The TGI is above 100 µM with SN12C renal, above 21.8 µM in the test on 786-0 renal, 7.83 µM with KM12 colon and above 100 µM with U251 CNS.

With `CCN1C(=S)N(CC)C2C1NC(=S)N2/N=C/C=C/c1ccccc1` (centres undefined), the GI50 in the test with SK-MEL-28 melanoma is 4.81 µM; in the test with SF-539 CNS, 1.67 µM; with COLO 205 colon, 1.11 µM; with SK-MEL-5 melanoma, 1.19 µM; in the test with A549 NSCLC it was 2.52 µM; in the test on NCI-H23 lung, 4.49 µM. For the same compound, the GI50 with SN12C renal is 3.49 µM; in the test on 786-0 renal, 5.19 µM; in the test on KM12 colon, 1.21 µM; with U251 CNS it was 2.31 µM. Further, the TGI in the test on SK-MEL-28 melanoma came to 21 µM; in the test on SF-539 CNS it was 5.4 µM; in the test with COLO 205 colon, 4.4 µM; in the test with SK-MEL-5 melanoma, 10.7 µM; with A549 NSCLC, 17.8 µM; with NCI-H23 lung, 22 µM. Further, the TGI in the test with SN12C renal is 16.8 µM; in the test on 786-0 renal it was 19.2 µM; with KM12 colon it was 14.7 µM; in the test with U251 CNS it was 13 µM.

As to `CCNC(=O)C#CC(=O)NCC`, the GI50 in the test on SK-MEL-28 melanoma is above 100 µM; in the test on SF-539 CNS, above 10 µM; with SK-MEL-5 melanoma, above 10 µM; with A549 NSCLC it was above 10 µM; with NCI-H23 lung it was above 10 µM; with SN12C renal, above 10 µM. The GI50 in the test on 786-0 renal, in the test with KM12 colon and in the test with U251 CNS was above 10 µM in each case. The TGI in the test with SK-MEL-28 melanoma, in the test on SF-539 CNS, with COLO 205 colon, in the test on SK-MEL-5 melanoma, in the test on A549 NSCLC and in the test on NCI-H23 lung was above 100 µM each time. The TGI in the test with SN12C renal, with 786-0 renal, in the test on KM12 colon and in the test on U251 CNS was above 100 µM each time.

On to `CCC(=O)C(C)C1=Nc2nnc(CCCCCCCc3nnc4n3C(=O)C(C(C)C(=O)CC)=N4)n2C1=O` (centres undefined), for which the TGI in the test with SK-MEL-28 melanoma, in the test with SF-539 CNS, with COLO 205 colon, in the test on SK-MEL-5 melanoma, in the test on A549 NSCLC and in the test with NCI-H23 lung was above 100 µM in each case. Moreover, the TGI in the test with SN12C renal, in the test on 786-0 renal, in the test on KM12 colon and with U251 CNS was above 100 µM throughout.

In the case of `CC/C=C\C[C@H](O)C/C=C1/C(=O)C=C[C@@H]1C/C=C\CCCC(=O)N(C)C`, the GI50 in the test with SK-MEL-28 melanoma is 1.96 µM; in the test on SF-539 CNS it was 2.18 µM; in the test with COLO 205 colon it was 1.45 µM; with SK-MEL-5 melanoma, 1.6 µM; with A549 NSCLC, 3.01 µM; with NCI-H23 lung it was 2 µM. In addition, the GI50 with SN12C renal was 2.6 µM; in the test on 786-0 renal, 0.504 µM; in the test with KM12 colon, 0.709 µM; with U251 CNS it was 1.32 µM. The TGI is 4.31 µM in the test with SK-MEL-28 melanoma; 7.14 µM in the test with SF-539 CNS; 3.3 µM in the test on COLO 205 colon; 3 µM in the test on SK-MEL-5 melanoma; 11.3 µM in the test on A549 NSCLC; 5.74 µM with NCI-H23 lung. Also, the TGI in the test on SN12C renal worked out at 10.9 µM; with 786-0 renal, 2.09 µM; in the test with KM12 colon, 4.03 µM; with U251 CNS it was 3.91 µM.
